Results taken from patent US5690906A (The Trustees of the University of Pennsylvania, priority 1995, dated 1997).
Read-outs that look alike come from different tables or passages of the source.

What was measured:
[1] = biological target: T1, D2 dopamine receptor (Rattus norvegicus, UniProt P61169); test: Inhibition of [^125 I]NCQ298 binding to D2 dopamine receptors expressed in Sf9 cells; settings: for HC D2: Table 4, Hill coefficient
T1 construct: made in house; host or cells: Sf9 insect cells infected with recombinant baculovirus (AcMNPVrD2L or AcMNPVrD2S), membrane homogenates
T1 sequence (P61169 whole entry): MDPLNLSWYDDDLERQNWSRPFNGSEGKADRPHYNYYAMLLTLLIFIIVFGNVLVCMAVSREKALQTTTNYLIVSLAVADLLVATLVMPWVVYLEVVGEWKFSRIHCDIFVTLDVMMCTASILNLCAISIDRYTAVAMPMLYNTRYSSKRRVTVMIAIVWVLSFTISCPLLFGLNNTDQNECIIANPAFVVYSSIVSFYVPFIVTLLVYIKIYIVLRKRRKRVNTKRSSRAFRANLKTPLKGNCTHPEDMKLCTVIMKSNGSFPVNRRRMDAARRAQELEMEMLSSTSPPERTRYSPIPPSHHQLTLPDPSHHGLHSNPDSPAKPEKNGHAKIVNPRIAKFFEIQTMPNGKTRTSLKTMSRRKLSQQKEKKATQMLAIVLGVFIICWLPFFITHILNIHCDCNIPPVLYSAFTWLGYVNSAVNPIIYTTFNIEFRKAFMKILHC

[2] = biological target: T2, D3 dopamine receptor (Rattus norvegicus, UniProt P19020); test: Inhibition of [^125 I]NCQ298 binding to D3 dopamine receptors expressed in Sf9 cells; settings: for HC D3: Table 4, Hill coefficient; for Ratio D2/D3: Table 4 and its discussion, Ki(D2)/Ki(D3)
T2 construct: made in house; host or cells: Sf9 insect cells infected with recombinant baculovirus AcMNPVrD3, membrane homogenates
T2 sequence (P19020 whole entry): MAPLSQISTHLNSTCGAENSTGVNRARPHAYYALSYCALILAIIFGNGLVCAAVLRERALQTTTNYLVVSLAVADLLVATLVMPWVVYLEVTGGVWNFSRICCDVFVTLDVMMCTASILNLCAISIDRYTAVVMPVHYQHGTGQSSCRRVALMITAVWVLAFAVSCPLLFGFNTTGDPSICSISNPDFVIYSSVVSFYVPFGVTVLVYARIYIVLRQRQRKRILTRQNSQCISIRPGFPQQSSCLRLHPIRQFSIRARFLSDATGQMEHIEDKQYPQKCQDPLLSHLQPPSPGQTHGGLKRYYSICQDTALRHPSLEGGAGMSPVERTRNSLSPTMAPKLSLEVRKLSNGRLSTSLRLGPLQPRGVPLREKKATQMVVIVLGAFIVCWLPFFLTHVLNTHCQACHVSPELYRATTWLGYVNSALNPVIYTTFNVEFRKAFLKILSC
Description: The construction of pVL1393-rD3 was previously described. […] An aliquot of membranes was used for radioligand binding.
Membranes from AcMNPV-rD3 infected Sf9 cells were prepared. […] Assays were incubated at 37° C. for 20 min. then filtered and washed as described above.

[3] = In-vivo biodistribution in rats; parameters: species or system rat; Brain uptake: unit not given here; settings: for Brain uptake: table; for tissue uptake at 2 min / tissue uptake at 1 h / tissue uptake at 0.5 h: rat
Description: In-vivo biodistribution studies were performed in rats^27 with the two hydroxylated radioligands: [^123 I]-7-OH-DPAT and [^123 I]-7-OH-PIPAT in rats. Concerning [^123 I]-7-OH-DPAT rats were killed either two minutes or thirty minutes post injection and the data are reported in Table 5. […] On the contrary, [^123 I]-7-OH-PIPAT presented a very high brain uptake: 11.812, 9,458 and 5.433% dose/gram of tissue at 2, 30 and 60 min. respectively (See Table 6). […] However, the brain regions, rich in D3 receptors such as Calleja island and olfactory tubercle need to be more deeply investigated.

[4] = biological target: D3 receptors (expressed in Sf9 cells) (Rattus norvegicus, UniProt P19020); settings: for Hill Co.: Table 3, [^125 I]trans-7-OH-PIPAT competition; for affinity for the D3 receptor: competition with [^125 I]trans-7-OH-PIPAT
D3 receptors (expressed in Sf9 cells), sequence (P19020 whole entry): as above
Description: Plasmid DNA was isolated by alkaline dialysis and purified by CsCl density gradient centrifugation and overnight dialysis for transfection of Sf9 cells. […] A monolayer of Sf9 cells (approximately 2×10^6 cells/T25 plate) was cotransfected by calcium phosphate precipitation, with 1 mg of AcMNPV DNA (provided by Dr. Max Summers, Texas A&M University, College Station, Tex.) and 2 mg of recombinant transfer vector DNA. […] Putative recombinant viral plaques were chosen by visual screening for occlusion-negative plaques and used to infect 1×10^6 Sf9 cells in a 6-well plate (CoStar, Cambridge, Mass.). Four days after infection, cells were harvested and membranes were prepared. An aliquot of membranes was used for radioligand binding. […] The membrane homogenates of AcMNPVrD3 infected Sf9 cells were prepared as described. Briefly, the harvested cells were centrifuged, resuspended and homogenized in buffer containing 50 mM Tris, pH7.4, 150mM NaCl, 10 mM EDTA and a mixture of protease inhibitors (1 mg/ml aprotinin, 1 mg/ml leupeptin, 1 mg/ml soybean trypsin inhibitor, 10 mg/ml PMSF). The final pellets obtained were resuspended in the same buffer and kept at -20° C. for radioligand binding assays.
Binding assays were performed in glass tubes (12×75 mm) in a final volume of 0.2 ml. The buffer used for the dilution contained 50 mM Tris, pH 7.4, and the protease inhibitors mixture. […] The competition experiments were performed in the presence of 120 mM NaCl. […] After incubation for 30 min at 37° C. or 90 min at 25° C., the bound ligand was separated from the free ligand by filtration through glass fiber filters No. 25 (Schleicher & Schuell, Keene, N.H.) soaked with 0.2% protamine free base. The filters were then washed twice with 4 ml of ice-cold buffer (containing 50 mM Tris-HCl, pH 7.4) and the radioactivity on the filters was counted in a gamma counter (Packard 5000) with 70% efficiency.

[5] = Table 4 and its discussion, [^125 I]-NCQ298 0.05 nM, 37° C., 20 min, read-out: Ki D2

In the case of `C#CCN(CCC)C1CCc2ccc(O)cc2C1` (centres unmarked) [7-OH-PPAT, 7Hydroxy-2-(-Propargyl-N-n-Propyl)-Aminotetralin], the “affinity for the D2 receptor” value [1] is reported as “three-fold less active than 7-OH-DPAT”, the “HC D2” value [1] is reported as 0.99 and the Ki [1, 5] is reported as 378 ± 45 nM. For the same compound, the Ki [2] was 9.2 ± 0.6 nM, the “affinity / selectivity for the D3 receptor” value [2] was “three-fold less active than 7-OH-DPAT” and the “HC D3” value [2] was 0.80. For the same compound, the “Ratio D2/D3” value [2] was 41.1.
`CCCN(C/C=C/[123I])C1CCc2ccc(O)cc2C1` (centres unmarked) [[^123 I]-7-OH-PIPAT] showed a Blood uptake ([3]; 2 min) of 2.621 ± 0.298, a Heart uptake ([3]; 2 min) of 1.780 ± 0.231 and a Kidney uptake ([3]; 2 min) of 5.887 ± 1.088. It also gave a Liver uptake ([3]; 2 min) of 9.687 ± 3.302, a Lung uptake ([3]; 2 min) of 5.394 ± 0.589 and a Muscle uptake ([3]; 2 min) of 33.199 ± 11.64. The Skin uptake ([3]; 2 min) was 8.816 ± 1.656, the Spleen uptake ([3]; 2 min) was 0.449 ± 0.161 and the Thyroid uptake ([3]; 2 min) was 0.174 ± 0.012. For the same compound, the Brain uptake ([3]; 2 min) was 2.612 ± 0.498, the Blood uptake ([3]; 30 min) was 0.785 ± 0.089 and the Heart uptake ([3]; 30 min) was 0.203 ± 0.054. For the same compound, the Kidney uptake ([3]; 30 min) was 0.978 ± 0.276, the Liver uptake ([3]; 30 min) was 3.573 ± 0.569 and the Lung uptake ([3]; 30 min) was 0.768 ± 0.146. It also gave a Muscle uptake ([3]; 30 min) of 23.546 ± 8.469, a Skin uptake ([3]; 30 min) of 6.962 ± 0.362 and a Spleen uptake ([3]; 30 min) of 0.284 ± 0.011. It also gave a Thyroid uptake ([3]; 30 min) of 0.045 ± 0.007, a Brain uptake ([3]; 30 min) of 0.660 ± 0.096 and a Blood uptake ([3]; 60 min) of 0.742 ± 0.075. It also gave a Heart uptake ([3]; 60 min) of 0.100 ± 0.010, a Kidney uptake ([3]; 60 min) of 1.042 ± 0.114 and a Liver uptake ([3]; 60 min) of 2.335 ± 1.391. The Lung uptake ([3]; 60 min) was 0.437 ± 0.038, the Muscle uptake ([3]; 60 min) was 12.882 ± 3.927 and the Skin uptake ([3]; 60 min) was 6.148 ± 0.922. It also gave a Spleen uptake ([3]; 60 min) of 0.180 ± 0.023, a Thyroid uptake ([3]; 60 min) of 0.096 ± 0.067 and a Brain uptake ([3]; 60 min) of 0.321 ± 0.037. The tissue uptake at 2 min ([3]; brain, 2 min, read-out: brain uptake) was 11.8 %ID/g, the tissue uptake at 1 h ([3]; brain, 60 min, read-out: brain uptake) was 5.43 %ID/g and the tissue uptake at 2 min ([3]; cerebellum, 2 min, read-out: Regional uptake, Cerebellum) was 1.61 ± 0.403 %ID/g. For the same compound, the tissue uptake at 0.5 h ([3]; cerebellum, 30 min, read-out: Regional uptake, Cerebellum) was 0.379 ± 0.009 %ID/g, the tissue uptake at 1 h ([3]; cerebellum, 60 min, read-out: Regional uptake, Cerebellum) was 0.215 ± 0.025 %ID/g and the tissue uptake at 2 min ([3]; cortex, 2 min, read-out: Regional uptake, Cortex) was 2 ± 0.038 %ID/g. For the same compound, the tissue uptake at 0.5 h ([3]; cortex, 30 min, read-out: Regional uptake, Cortex) was 0.265 ± 0.086 %ID/g, the tissue uptake at 1 h ([3]; cortex, 60 min, read-out: Regional uptake, Cortex) was 0.206 ± 0.022 %ID/g and the tissue uptake at 2 min ([3]; hippocampus, 2 min, read-out: Regional uptake, Hippocampus) was 1.63 ± 0.222 %ID/g. It also gave a tissue uptake at 0.5 h ([3]; hippocampus, 30 min, read-out: Regional uptake, Hippocampus) of 0.261 ± 0.064 %ID/g, a tissue uptake at 1 h ([3]; hippocampus, 60 min, read-out: Regional uptake, Hippocampus) of 0.216 ± 0.02 %ID/g and a tissue uptake at 2 min ([3]; hypothalamus, 2 min, read-out: Regional uptake, Hypothalamus) of 1.83 ± 0.233 %ID/g. It also gave a tissue uptake at 0.5 h ([3]; hypothalamus, 30 min, read-out: Regional uptake, Hypothalamus) of 0.251 ± 0.009 %ID/g, a tissue uptake at 1 h ([3]; hypothalamus, 60 min, read-out: Regional uptake, Hypothalamus) of 0.254 ± 0.033 %ID/g and a tissue uptake at 2 min ([3]; rem, 2 min, read-out: Regional uptake, REM) of 1.67 ± 0.224 %ID/g. The tissue uptake at 0.5 h ([3]; rem, 30 min, read-out: Regional uptake, REM) was 0.281 ± 0.076 %ID/g, the tissue uptake at 1 h ([3]; rem, 60 min, read-out: Regional uptake, REM) was 0.218 ± 0.025 %ID/g and the tissue uptake at 2 min ([3]; striatum, 2 min, read-out: Regional uptake, Striatum) was 1.62 ± 0.236 %ID/g. For the same compound, the tissue uptake at 0.5 h ([3]; striatum, 30 min, read-out: Regional uptake, Striatum) was 0.263 ± 0.08 %ID/g, the tissue uptake at 1 h ([3]; striatum, 60 min, read-out: Regional uptake, Striatum) was 0.212 ± 0.029 %ID/g and the “regional uptake in the different area of the brain” value ([3]; rats, brain) was “no regional uptake was observed”.
With `COC(=O)[C@@H]1[C@H]2C[C@H]3c4[nH]c5ccccc5c4CCN3C[C@@H]2CC[C@@H]1O` [Yohimbine] the “Hill Co.” value ([4]; 37° C., 120 mM NaCl) was 0.97, the “affinity for the D3 receptor” value [4] was “moderate to low affinity” and the Ki ([4]; ± SE, [^125 I]trans-7-OH-PIPAT 0.1-0.2 nM, 37° C., 120 mM NaCl) was 2430 ± 146 nM.
With `CCCN(CCC)C1CCc2ccc(O)cc2C1` (centres unmarked) [7-OH-DPAT, 7Hydroxy-2-N,N-n-Dipropylaminotetralin, reference compound] the “HC D2” value [1] was 1.02, the “Hill Co.” value ([4]; 37° C., 120 mM NaCl) was 0.87 and the “affinity for the D3 receptor” value [4] was “high affinity”. The “HC D3” value [2] was 0.85.
For `CN1CCc2cc(Cl)c(O)cc2[C@@H](c2ccccc2)C1` [SCH23390], the “Hill Co.” value ([4]; 37° C., 120 mM NaCl) was 0.80 and the “affinity for the D3 receptor” value [4] was “moderate to low affinity”.
In the case of `CCCN(CCC)C1CCc2ccc(O)c(I)c2C1` (centres unmarked) [8-I-7-OH-DPAT, 7Hydroxy-8-Iodo-2-N,N-n-Dipropylaminotetralin], the “HC D2” value [1] is reported as 0.92, the Ki [1, 5] is reported as 353 ± 31 nM and the Ki [2] is reported as 21.3 ± 2.9 nM. For the same compound, the “HC D3” value [2] was 0.85 and the “Ratio D2/D3” value [2] was 16.6.
With `CCCN(CCC)C1CCc2ccc(OC)cc2C1` (centres unmarked) [7-MeO-DPAT, 7Methoxy-2-N,N-n-Dipropylaminotetralin] the Ki [1] was 2170 ± 216 nM, the “HC D2” value [1] was 0.95 and the Ki [2] was 280 ± 36 nM. The “HC D3” value [2] was 0.98 and the “Ratio D2/D3” value [2] was 7.7.
With `CCCN(CCC)C1CCc2ccc(O)c([123I])c2C1` (centres unmarked) [[^123 I]-7-OH-DPAT, reference compound] the Brain uptake ([3]; 2 min) was 1.55 ± 0.21, the Brain uptake ([3]; 30 min) was 0.54 ± 0.13 and the tissue uptake at 2 min ([3]; in vivo, 2 min, read-out: Regional uptake, Cerebellum) was 0.81 ± 0.14 %ID/g. For the same compound, the tissue uptake at 2 min ([3]; in vivo, 2 min, read-out: Regional uptake, Cortex) was 1.1 ± 0.12 %ID/g, the tissue uptake at 2 min ([3]; in vivo, 2 min, read-out: Regional uptake, Hippocampus) was 0.78 ± 0.09 %ID/g and the tissue uptake at 2 min ([3]; in vivo, 2 min, read-out: Regional uptake, Striatum) was 0.85 ± 0.07 %ID/g. It also gave a tissue uptake at 0.5 h ([3]; in vivo, 30 min, read-out: Regional uptake, Cerebellum) of 0.25 ± 0.09 %ID/g, a tissue uptake at 0.5 h ([3]; in vivo, 30 min, read-out: Regional uptake, Cortex) of 0.29 ± 0.12 %ID/g and a tissue uptake at 0.5 h ([3]; in vivo, 30 min, read-out: Regional uptake, Hippocampus) of 0.31 ± 0.07 %ID/g. For the same compound, the tissue uptake at 0.5 h ([3]; in vivo, 30 min, read-out: Regional uptake, Striatum) was 0.31 ± 0.08 %ID/g, the “brain washout” value ([3]; rats, brain) was “rapidly washed out of the brain” and the “regional uptake in the different area of the brain” value ([3]; rats, brain) was “no regional uptake was observed”.
In the case of `CCCNC1CCc2ccc(O)cc2C1` (centres unmarked) [7-OH-MPAT, 7Hydroxy-2-N-n-Propylaminotetralin], the “HC D2” value [1] is reported as 0.80, the Ki [1, 5] is reported as 620 ± 124 nM and the Ki [2] is reported as 3.25 ± 0.45 nM. The “affinity / selectivity for the D3 receptor” value [2] was “comparative affinity as 7-OH-DPAT for D3 receptors”, the “HC D3” value [2] was 0.80 and the “Ratio D2/D3” value [2] was 191.
